Results on 10 molecules are retold here after patent US6841530B2, “Semi-synthetic studies toward didemnin analogues” (The Board of Trustees of the University of Illinois, priority 1996, dated 2005).

Values after ≈ are worked out from the molar mass of the structure shown. Starred links: 1 amine or outer side, 2 acyl side, 3 side chain; linkers in the order of their positions; H or OH if unused. Positions of bridges follow the written chain, without caps; N, C: chain ends. Non-standard residues stand in square brackets, D forms with d. Residues, ends and D or L forms follow the SMILES beside them. *: point of attachment. X1 = CC[C@H](C)[C@@H](N[*:1])[C@@H](O)CC(=O)O[C@H](C(=O)[C@H](C)C(=O)[*:2])C(C)C; NMeY = CN[C@@H](Cc1ccc(O)cc1)C(=O)O; dNMeL = CN[C@H](CC(C)C)C(=O)O; pGlu = O=C1CC[C@@H](C(=O)O)N1; Pyruvoyl = CC(=O)C(=O)*; Cbz = O=C(OCc1ccccc1)*; Boc = CC(C)(C)OC(=O)*; Lac = C[C@H](O)C(=O)O

One data set deals with HSV. Nature of the data set: Antiviral activities of didemnins, HSV/CV-1. Format: cell-based. On the set-up: key: +++ = complete inhibition; ++ = strong inhibition; + = moderate inhibition; − = no inhibition.
Data set [1] in a line: Cytotoxicity of didemnins (Table II). Format: cell-based. The conditions noted are these: for IC50: cytotoxicity.
The next data set has as its system CV-1. Kind of data set: Cytotoxicity score in the HSV/CV-1 antiviral assay. The conditions noted are these: scale 0 (least toxic) to 16 (toxic).

The IC50 is the point on the concentration scale where inhibition reaches its midpoint. For the molecule `CC[C@H](C)[C@H]1NC(=O)[C@@H](NC(=O)[C@@H](CC(C)C)NC)[C@@H](C)OC(=O)[C@H](Cc2ccc(OC)cc2)N(C)C(=O)[C@@H]2CCCN2C(=O)[C@H](CC(C)C)NC(=O)[C@@H](C)C(=O)[C@H](C(C)C)OC(=O)C[C@@H]1O` [Didemnin A (1), Didemnin A] (H-[dNMeL]T[X1]LP[NMeY](Me); ester 2-C), the Activity entry in the data set with HSV (10 ng/mL) is “−”; with HSV (20 ng/mL), “+”; with HSV (50 ng/mL), “+”; in the data set on HSV (100 ng/mL) it was “+”. The “Inhibition (%)” value is 0% in data set [1] (Dose 0.25 ng/mL), 0% in data set [1] (Dose 2.5 ng/mL), 70% in data set [1] (Dose 25 ng/mL) and 100% in data set [1] (Dose 250 ng/mL). Also, the IC50 in data set [1] is on record as 75 ng/mL (≈ 79.5 nM). The Cytotoxocity with CV-1 (10 ng/mL), in the data set with CV-1 (20 ng/mL), in the data set with CV-1 (50 ng/mL) and with CV-1 (100 ng/mL) was 0 each time.
On to `CC[C@H](C)[C@H]1NC(=O)[C@@H](NC(=O)[C@@H](CC(C)C)N(C)C(=O)[C@@H]2CCCN2C(=O)OC(C)(C)C)[C@@H](C)OC(=O)[C@H](Cc2ccc(OC)cc2)N(C)C(=O)[C@@H]2CCCN2C(=O)[C@H](CC(C)C)NC(=O)[C@@H](C)C(=O)[C@H](C(C)C)OC(=O)C[C@@H]1O` [Boc-Pro-didemnin A (158), Boc-L-prolyl-didemnin A] (Boc-P[dNMeL]T[X1]LP[NMeY](Me); ester 3-C), for which the “Inhibition (%)” value in data set [1] (Dose 0.25 ng/mL) was 0%; in data set [1] (Dose 2.5 ng/mL), 0%; in data set [1] (Dose 25 ng/mL), 55%; in data set [1] (Dose 250 ng/mL) it was 100%. This molecule also yielded an IC50 in data set [1] of 85 ng/mL (≈ 74.5 nM).
For `CC[C@H](C)[C@H]1NC(=O)[C@@H](NC(=O)[C@@H](CC(C)C)N(C)C(=O)[C@@H]2CCCN2C(=O)C(C)O)[C@@H](C)OC(=O)[C@H](Cc2ccc(OC)cc2)N(C)C(=O)[C@@H]2CCCN2C(=O)[C@H](CC(C)C)NC(=O)[C@@H](C)C(=O)[C@H](C(C)C)OC(=O)C[C@@H]1O` (some centres unmarked) [Didemnin (B) (2), Didemnin B, reference compound], the Activity entry in the data set on HSV (10 ng/mL) is recorded as “+”; in the data set on HSV (20 ng/mL), “+++”; in the data set with HSV (50 ng/mL) it was “+++”. Further, the “Inhibition (%)” value came out at 0% in data set [1] (Dose 0.25 ng/mL), 40% in data set [1] (Dose 2.5 ng/mL), 100% in data set [1] (Dose 25 ng/mL) and 100% in data set [1] (Dose 250 ng/mL). Besides, in data set [1], the IC50 came to 7 ng/mL (≈ 6.29 nM). For the same molecule, the Cytotoxocity in the data set with CV-1 (10 ng/mL) is on record as 0; with CV-1 (20 ng/mL), 0; in the data set on CV-1 (50 ng/mL), 0; with CV-1 (100 ng/mL) it was 16.
As to `CC[C@H](C)[C@H]1NC(=O)[C@@H](NC(=O)[C@@H](CC(C)C)N(C)C(=O)[C@@H]2CCCN2C(=O)C(C)=O)[C@@H](C)OC(=O)[C@H](Cc2ccc(OC)cc2)N(C)C(=O)[C@@H]2CCCN2C(=O)[C@H](CC(C)C)NC(=O)[C@@H](C)C(=O)[C@H](C(C)C)OC(=O)C[C@@H]1O` [Dehydrodidemnin B (6), Dehydrodidemnin B] (Pyruvoyl-P[dNMeL]T[X1]LP[NMeY](Me); ester 3-C), the figures for the Activity entry in the data set with HSV (10 ng/mL) and in the data set with HSV (20 ng/mL) were “+” and “+++”, respectively. Besides, the “Inhibition (%)” value in data set [1] (Dose 0.25 ng/mL) was 95%; in data set [1] (Dose 2.5 ng/mL), 100%; in data set [1] (Dose 25 ng/mL), 100%; in data set [1] (Dose 250 ng/mL) it was 100%. The molecule also yielded an IC50 in data set [1] of 0.2 ng/mL (≈ 0.18 nM). Besides, the Cytotoxocity with CV-1 (10 ng/mL) is 0; in the data set with CV-1 (20 ng/mL) it was 0; with CV-1 (50 ng/mL) it was 16; in the data set on CV-1 (100 ng/mL), 16.
Regarding `CC[C@H](C)[C@H]1NC(=O)[C@@H](NC(=O)[C@@H](CC(C)C)N(C)C(=O)[C@@H]2CCCN2C(=O)[C@H](C)OC(=O)[C@H](CCC(N)=O)NC(=O)OCc2ccccc2)[C@@H](C)OC(=O)[C@H](Cc2ccc(OC)cc2)N(C)C(=O)[C@@H]2CCCN2C(=O)[C@H](CC(C)C)NC(=O)[C@@H](C)C(=O)[C@H](C(C)C)OC(=O)C[C@@H]1OC(=O)[C@H](CCC(N)=O)NC(=O)OCc1ccccc1` [Cbz-Gln[Cbz-GlnIst^2]DB (162), di-(benzyloxycarbonyl)glutaminyl-didemnin B], the Activity entry was “+” in the data set with HSV (10 ng/mL), “+” in the data set with HSV (20 ng/mL), “+” in the data set with HSV (50 ng/mL) and “+++” with HSV (100 ng/mL). The “Inhibition (%)” value is 0% in data set [1] (Dose 0.25 ng/mL), 0% in data set [1] (Dose 2.5 ng/mL), 87% in data set [1] (Dose 25 ng/mL) and 99% in data set [1] (Dose 250 ng/mL). This molecule came in with an IC50 in data set [1] of 50 ng/mL (≈ 30.5 nM). Also, the Cytotoxocity in the data set with CV-1 (10 ng/mL), in the data set on CV-1 (20 ng/mL), in the data set with CV-1 (50 ng/mL) and in the data set on CV-1 (100 ng/mL) was 0 each time.
For the molecule `CC[C@H](C)[C@H]1NC(=O)[C@@H](NC(=O)[C@@H](CC(C)C)N(C)C(=O)[C@@H]2CCCN2C(=O)[C@H](C)OC(=O)[C@H](CCC(N)=O)NC(=O)OCc2ccccc2)[C@@H](C)OC(=O)[C@H](Cc2ccc(OC)cc2)N(C)C(=O)[C@@H]2CCCN2C(=O)[C@H](CC(C)C)NC(=O)[C@@H](C)C(=O)[C@H](C(C)C)OC(=O)C[C@@H]1O` [Cbz-Gln-Didemnin B (161), N-Benzyloxycarbonyl-L-glutaminyl-didemnin B] (Cbz-Q[Lac]P[dNMeL]T[X1]LP[NMeY](Me); ester 5-C), the Activity result in the data set on HSV (10 ng/mL) is recorded as “−”; with HSV (20 ng/mL) it was “+”; in the data set with HSV (50 ng/mL) it was “+”; in the data set on HSV (100 ng/mL), “+”. Besides, the “Inhibition (%)” value in data set [1] (Dose 0.25 ng/mL) came to 0%; in data set [1] (Dose 2.5 ng/mL) it was 0%; in data set [1] (Dose 25 ng/mL), 87%; in data set [1] (Dose 250 ng/mL) it was 100%. In data set [1], this molecule yielded an IC50 of 25 ng/mL (≈ 18.2 nM). For the same molecule, the Cytotoxocity in the data set on CV-1 (10 ng/mL), with CV-1 (20 ng/mL), with CV-1 (50 ng/mL) and with CV-1 (100 ng/mL) was 0 throughout.
For `CC[C@H](C)[C@H]1NC(=O)[C@@H](NC(=O)[C@@H](CC(C)C)N(C)C(=O)[C@@H]2CCCN2)[C@@H](C)OC(=O)[C@H](Cc2ccc(OC)cc2)N(C)C(=O)[C@@H]2CCCN2C(=O)[C@H](CC(C)C)NC(=O)[C@@H](C)C(=O)[C@H](C(C)C)OC(=O)C[C@@H]1O` [Prolyl-didemnin A (43), prolyl-didemnin A] (H-P[dNMeL]T[X1]LP[NMeY](Me); ester 3-C), the “Inhibition (%)” value in data set [1] (Dose 0.25 ng/mL) amounted to 30%; in data set [1] (Dose 2.5 ng/mL), 40%; in data set [1] (Dose 25 ng/mL), 99%; in data set [1] (Dose 250 ng/mL), 100%. For the same molecule, the IC50 in data set [1] is recorded as 12 ng/mL (≈ 11.5 nM).
As for `CC[C@H](C)[C@H]1NC(=O)[C@@H](NC(=O)[C@@H](CC(C)C)N(C)C(=O)[C@@H]2CCCN2C(=O)[C@H](C)OC(=O)[C@H](CCC(N)=O)NC(=O)[C@@H]2CCC(=O)N2)[C@@H](C)OC(=O)[C@H](Cc2ccc(OC)cc2)N(C)C(=O)[C@@H]2CCCN2C(=O)[C@H](CC(C)C)NC(=O)[C@@H](C)C(=O)[C@H](C(C)C)OC(=O)C[C@@H]1O` [Didemnin M (5), L-Pyroglutaminyl-L-glutaminyl-didemnin B] ([pGlu]Q[Lac]P[dNMeL]T[X1]LP[NMeY](Me); ester 6-C), the Activity result in the data set on HSV (10 ng/mL) was “+”; in the data set with HSV (20 ng/mL) it was “+++”. Further, the “Inhibition (%)” value in data set [1] (Dose 0.25 ng/mL) was found to be 94%; in data set [1] (Dose 2.5 ng/mL) it was 100%; in data set [1] (Dose 25 ng/mL), 100%; in data set [1] (Dose 250 ng/mL), 100%. The molecule also showed an IC50 in data set [1] of 0.8 ng/mL (≈ 0.592 nM). Further, the Cytotoxocity is 0 in the data set with CV-1 (10 ng/mL), 0 in the data set with CV-1 (20 ng/mL), 16 in the data set with CV-1 (50 ng/mL) and 16 in the data set with CV-1 (100 ng/mL).
Turning to `CC[C@H](C)[C@H]1NC(=O)[C@@H](NC(=O)[C@@H](CC(C)C)N(C)C(=O)[C@@H]2CCCN2C(=O)[C@H](C)OC(=O)[C@@H](N)CCC(N)=O)[C@@H](C)OC(=O)[C@H](Cc2ccc(OC)cc2)N(C)C(=O)[C@@H]2CCCN2C(=O)[C@H](CC(C)C)NC(=O)[C@@H](C)C(=O)[C@H](C(C)C)OC(=O)C[C@@H]1OC(=O)[C@@H](N)CCC(N)=O` [Gln[GlnIst^2]-Didemnin B (160), Glutaminyl-glutaminyl-didemnin B], the Activity result with HSV (10 ng/mL) is “+”; in the data set on HSV (20 ng/mL), “+”; in the data set on HSV (50 ng/mL) it was “+”; with HSV (100 ng/mL), “+++”. The “Inhibition (%)” value in data set [1] (Dose 0.25 ng/mL) was 0%; in data set [1] (Dose 2.5 ng/mL) it was 0%; in data set [1] (Dose 25 ng/mL) it was 87%; in data set [1] (Dose 250 ng/mL), 100%. This molecule gave an IC50 in data set [1] of 50 ng/mL (≈ 36.5 nM). Moreover, the Cytotoxocity with CV-1 (10 ng/mL), with CV-1 (20 ng/mL), in the data set with CV-1 (50 ng/mL) and in the data set with CV-1 (100 ng/mL) was 0 throughout.
Consider `CC[C@H](C)[C@H]1NC(=O)[C@@H](NC(=O)[C@@H](CC(C)C)N(C)C(=O)[C@@H]2CCCN2C(=O)[C@H](C)OC(=O)[C@@H]2CCC(=O)N2)[C@@H](C)OC(=O)[C@H](Cc2ccc(OC)cc2)N(C)C(=O)[C@@H]2CCCN2C(=O)[C@H](CC(C)C)NC(=O)[C@@H](C)C(=O)[C@H](C(C)C)OC(=O)C[C@@H]1O` [pGlu-Didemnin B (39), L-Pyroglutaminyl-didemnin B] ([pGlu][Lac]P[dNMeL]T[X1]LP[NMeY](Me); ester 5-C), for which the Activity result in the data set with HSV (10 ng/mL) is “+”; with HSV (20 ng/mL), “+++”. Further, the “Inhibition (%)” value is reported as 94% in data set [1] (Dose 0.25 ng/mL), 100% in data set [1] (Dose 2.5 ng/mL), 100% in data set [1] (Dose 25 ng/mL) and 100% in data set [1] (Dose 250 ng/mL). This molecule yielded an IC50 in data set [1] of 0.1 ng/mL (≈ 0.0817 nM). The Cytotoxocity is 0 in the data set with CV-1 (10 ng/mL), 0 in the data set on CV-1 (20 ng/mL), 16 in the data set with CV-1 (50 ng/mL) and 16 in the data set on CV-1 (100 ng/mL).
